The values below come from publication PMC9228270, “Design, Synthesis, In Silico Studies and Inhibitory Activity towards Bcr-Abl, BTK and FLT3-ITD of New 2,6,9-Trisubstituted Purine Derivatives as Potential Agents for the Treatment of Leukaemia” (Pharmaceutics, 2022).

For one data set, the system named is CEM. The data set is described as follows: Cytotoxicity assay (resazurin), CEM. Format: cell-based. The following applies: Homo sapiens, CCRF-CEM, 72 h, three independent experiments, range 0.1 to 25 µM. How it is done:
(§1) Cytotoxicity assays for the purines were quantified using the resazurin method, a dye to measure redox reactions occurring in the mitochondria of live cells. The cells were treated by tested compounds (in triplicate, six different doses) for 72 h.

Data set [1] addresses T1, FLT3-ITD (Homo sapiens, UniProt P36888, ITD).
T1 sequence (P36888 27-993): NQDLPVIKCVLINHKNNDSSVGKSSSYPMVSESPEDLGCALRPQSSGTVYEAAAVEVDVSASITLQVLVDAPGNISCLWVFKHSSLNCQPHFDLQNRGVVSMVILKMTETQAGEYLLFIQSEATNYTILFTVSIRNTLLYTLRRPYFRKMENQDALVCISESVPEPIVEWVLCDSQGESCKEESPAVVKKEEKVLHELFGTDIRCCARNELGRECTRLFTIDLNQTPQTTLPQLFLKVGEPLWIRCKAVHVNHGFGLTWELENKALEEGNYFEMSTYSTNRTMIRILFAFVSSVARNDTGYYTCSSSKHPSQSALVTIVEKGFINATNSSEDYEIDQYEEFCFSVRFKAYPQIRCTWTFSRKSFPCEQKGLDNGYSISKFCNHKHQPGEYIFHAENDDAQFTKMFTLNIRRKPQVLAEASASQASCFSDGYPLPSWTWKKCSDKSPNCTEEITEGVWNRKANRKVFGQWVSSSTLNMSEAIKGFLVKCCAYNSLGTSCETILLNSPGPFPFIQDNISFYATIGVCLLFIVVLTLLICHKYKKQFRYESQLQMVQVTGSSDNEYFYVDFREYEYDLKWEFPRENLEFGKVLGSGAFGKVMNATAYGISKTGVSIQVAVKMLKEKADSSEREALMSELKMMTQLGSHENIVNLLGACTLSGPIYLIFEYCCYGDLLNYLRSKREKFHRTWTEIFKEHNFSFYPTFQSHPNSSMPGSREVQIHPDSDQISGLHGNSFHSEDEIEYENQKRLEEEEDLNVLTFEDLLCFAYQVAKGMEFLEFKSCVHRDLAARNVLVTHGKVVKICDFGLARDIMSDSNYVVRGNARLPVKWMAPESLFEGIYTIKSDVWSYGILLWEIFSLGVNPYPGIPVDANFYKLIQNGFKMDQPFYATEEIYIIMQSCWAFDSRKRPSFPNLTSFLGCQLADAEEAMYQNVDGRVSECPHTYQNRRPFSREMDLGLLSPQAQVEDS
In words: Recombinant kinase radioassay, FLT3-ITD. Format: biochemical. The following applies: recombinant kinase, radioassay; at least three independent experiments, range 0.01–100 µM; read-out: IC50 FLT3-ITD. The method, boiled down: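 FLT3-ITD kinase, purchased from ProQinase, was tested in a standard radioassay with 100 µM poly (Glu:Tyr; 4:1) substrate, 0.05 µCi [γ-^33P]ATP and test compound in buffer of 60 mM HEPES-NaOH pH 7.5, 3 mM MgCl2, 3 mM MnCl2, 3 µM Na orthovanadate, 1.2 mM DTT and 2.5 µg/50 µL PEG20.000. Phosphorylated substrate was separated on P-81 phosphocellulose and quantified with a FLA-7000 image analyser.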

For another data set, the target named is T2, BTK (Homo sapiens, UniProt Q06187).
T2 construct: purchased ProQinase
In words: Recombinant kinase radioassay, BTK. Format: biochemical. The conditions noted are these: recombinant kinase, radioassay, ATP 15 µM; at least three independent experiments, range 0.01–100 µM; read-out: IC50 BTK. An outline of the steps:
(§2)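 Radiometric kinase assay: 0.05 µCi [γ-33P]ATP in HEPES pH 7.5 buffer with Mg2+/Mn2+, vanadate, DTT. Commercial BTK with 100 µM poly(Glu:Tyr 4:1), 15 µM ATP. In-house Cdk-2/cyclin E with 1 mg/mL histone H1, 15 µM ATP. H3PO4 stop, phosphocellulose capture, phosphorimager read.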

Another data set addresses Bcr-Abl1 (Homo sapiens, UniProt P00519). In words: Recombinant kinase radioassay, Abl. Format: biochemical. The conditions noted are these: ATP 1 µM, at least three independent experiments, range 0.01–100 µM.
Data set [2] has as its system BTK signalling in Ramos cells. The data set is described as follows: Immunoblotting of BTK signalling in anti-IgM-stimulated Ramos. Format: cell-based. The conditions noted are these: immunoglobulin M-activated Ramos cells, 4 h, dose-dependent. How it is done:
Protein changes in the treated cells were analysed using immunoblotting. Briefly, cell lysates were separated on SDS-polyacrylamide gels and electroblotted onto nitrocellulose membranes. After blocking, overnight incubation with specific primary antibodies and incubation with peroxidase-conjugated secondary antibodies, the peroxidase activity was detected with Super-Signal West Pico reagents (Thermo Scientific, Waltham, MA, USA) using a CCD camera LAS-4000 (Fujifilm). The following specific antibodies were purchased from Cell Signalling: anti-FLT3 (clone 8F2), anti-phospho-FLT3 Y589/591 (clone 30D4), anti-STAT5 (clone D2O6Y), anti-phospho-STAT5 Y694, anti-ERK1/2, anti-phospho-ERK1/2 T202/Y204, anti-Akt (clone C67E7), anti-phospho-Akt S473 (clone D9E), anti-phospho-Bcr Y177, anti-CrkL (clone 32H4), anti-phospho-CrkL Y207, anti-BTK (clone C82B8), anti-phospho-BTK Y223, anti-PLCγ2, anti-phospho-PLCγ2 Y1217, and anti-PARP-1 (clone 46D11). Anti-α-tubulin (clone DM1A) was purchased from Sigma Aldrich.
Based on their inhibitory effects on recombinant kinases as well as cytotoxic effects in relevant cell line models, the purine derivatives 4i, 5b and 5j were selected for further experiments to confirm the expected molecular mechanism of action. The candidate compounds were tested to determine changes in signalling pathways downstream of the oncogenic kinases in cells. […]
On the technique in general: In western blotting, separated proteins are transferred to a membrane and probed.

The target of the next data set is T3, Cdk-2/cyclin E (Homo sapiens, UniProt P24941).
T3 construct: made in house
The data set is described as follows: Recombinant kinase radioassay, Cdk-2/cyclin E. Format: biochemical. The conditions noted are these: ATP 15 µM, at least three independent experiments, range 0.01–100 µM. The method, boiled down:
as §2

In the next data set the test system is K562. In words: Cytotoxicity assay (resazurin), K562. The conditions noted are these: Homo sapiens, 72 h, three independent experiments, range 0.1 to 25 µM. Format: cell-based. How it is done:
as §1

The next data set has as its system MV4-11. In words: Cytotoxicity assay (resazurin), MV4-11. Format: cell-based. The conditions noted are these: Homo sapiens, 72 h, three independent experiments, range 0.1 to 25 µM. How it is done: as §1
A further data set deals with HL-60. In words: Cytotoxicity assay (resazurin), HL-60. The following applies: Homo sapiens, 72 h, three independent experiments, range 0.1 to 25 µM. Format: cell-based. How it is done:
as §1
For orientation: Resazurin is reduced to fluorescent resorufin, in cell work by metabolically active cells.

The test system of a further data set is Ramos. In words: Cytotoxicity assay (resazurin), Ramos. The conditions noted are these: Homo sapiens, 72 h, three independent experiments, range 0.1 to 25 µM. Format: cell-based. How it is done: as §1
The target of data set [3] is T4, FLT3-ITD (Homo sapiens, UniProt P36888).
T4 sequence (P36888 27-993): T1 sequence (P36888 27-993)
The arrangement: method as in PMID 29672049. The conditions noted are these: cited from earlier work.

One may read the melting point as the temperature of the solid-liquid transition. In general, GI50 refers to the concentration at which growth is held to half of that of the control. Higher therefore signals lower sensitivity of the cells. As usually defined, the IC50 is the point on the concentration scale where inhibition reaches its midpoint.

Values joined by “and” are separate entries in the source; they are usually repeats but may differ in a detail not shown here. Identical values can stand only once.

T2 sequence (Q06187 whole entry): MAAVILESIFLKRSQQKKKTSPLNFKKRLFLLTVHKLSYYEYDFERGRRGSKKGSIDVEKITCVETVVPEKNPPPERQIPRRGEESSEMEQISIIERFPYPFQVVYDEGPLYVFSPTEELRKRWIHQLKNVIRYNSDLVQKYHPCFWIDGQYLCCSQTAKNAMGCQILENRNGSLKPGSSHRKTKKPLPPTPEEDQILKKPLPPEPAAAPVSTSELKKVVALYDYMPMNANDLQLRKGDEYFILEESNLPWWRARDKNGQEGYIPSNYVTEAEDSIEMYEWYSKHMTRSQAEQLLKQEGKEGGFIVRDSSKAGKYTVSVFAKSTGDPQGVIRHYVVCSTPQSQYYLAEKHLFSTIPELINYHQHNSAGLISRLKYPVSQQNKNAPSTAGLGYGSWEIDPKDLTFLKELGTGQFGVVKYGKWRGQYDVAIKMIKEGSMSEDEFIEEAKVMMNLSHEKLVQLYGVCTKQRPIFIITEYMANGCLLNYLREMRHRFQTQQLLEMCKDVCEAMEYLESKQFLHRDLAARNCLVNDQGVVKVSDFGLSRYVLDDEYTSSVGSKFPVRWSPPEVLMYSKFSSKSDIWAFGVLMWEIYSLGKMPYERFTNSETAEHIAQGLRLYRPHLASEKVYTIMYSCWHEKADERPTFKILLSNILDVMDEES
Bcr-Abl1, sequence (P00519 27-1130): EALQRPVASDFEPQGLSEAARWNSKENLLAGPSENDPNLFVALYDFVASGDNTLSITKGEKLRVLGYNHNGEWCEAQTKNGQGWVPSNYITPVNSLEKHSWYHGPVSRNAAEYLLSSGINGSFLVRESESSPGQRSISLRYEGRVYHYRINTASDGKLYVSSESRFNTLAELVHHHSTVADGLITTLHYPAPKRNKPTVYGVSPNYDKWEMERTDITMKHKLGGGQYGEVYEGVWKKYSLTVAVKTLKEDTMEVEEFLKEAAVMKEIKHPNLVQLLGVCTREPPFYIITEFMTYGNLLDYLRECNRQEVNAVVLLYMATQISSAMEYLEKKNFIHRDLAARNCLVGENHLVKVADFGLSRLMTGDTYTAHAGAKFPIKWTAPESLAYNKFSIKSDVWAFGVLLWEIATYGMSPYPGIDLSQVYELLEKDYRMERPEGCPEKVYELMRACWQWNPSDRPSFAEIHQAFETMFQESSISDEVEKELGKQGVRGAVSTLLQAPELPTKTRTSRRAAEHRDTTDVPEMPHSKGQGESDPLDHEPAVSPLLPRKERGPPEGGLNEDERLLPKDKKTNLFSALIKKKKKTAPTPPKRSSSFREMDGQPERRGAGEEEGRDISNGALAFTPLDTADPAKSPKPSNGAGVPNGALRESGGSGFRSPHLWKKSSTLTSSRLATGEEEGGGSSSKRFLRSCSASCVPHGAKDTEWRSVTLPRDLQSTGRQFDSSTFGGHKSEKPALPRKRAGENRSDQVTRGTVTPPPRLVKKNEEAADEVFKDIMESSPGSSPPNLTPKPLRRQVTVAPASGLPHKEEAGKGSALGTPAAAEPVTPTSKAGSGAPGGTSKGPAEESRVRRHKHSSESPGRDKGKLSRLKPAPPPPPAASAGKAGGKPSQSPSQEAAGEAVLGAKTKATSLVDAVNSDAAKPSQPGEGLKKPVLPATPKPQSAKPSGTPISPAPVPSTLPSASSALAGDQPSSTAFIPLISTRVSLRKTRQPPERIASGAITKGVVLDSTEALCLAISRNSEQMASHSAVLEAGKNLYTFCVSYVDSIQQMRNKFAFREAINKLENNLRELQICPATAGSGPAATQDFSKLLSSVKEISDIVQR

Compound `CCCCCCCCn1cnc2c(Nc3ccccc3)nc(Nc3ccc(N4CCN(C)CC4)cc3)nc21` [Compound 5j, N^2-(4-(4-Methylpiperazin-1-yl)phenyl)-9-octyl-N^6-phenyl-9H-purine-2,6-diamine] displayed a melting point of 171.3 to 173.5 °C. The compound also yielded a GI50 in the data set with CEM of 23.6 ± 2.01 µM. In addition, on FLT3-ITD [1], the concentration for half-maximal inhibition (IC50) stood at 20.3 µM. Moreover, on BTK, the concentration for half-maximal inhibition (IC50) is < 0.58 µM and 0.41 µM. In addition, the IC50 on Bcr-Abl1 is over 100 µM. In addition, the “Levels of phosphorylated BTK and downstream targets PLCγ2 and Akt” value in [2] was “decreased”. Further, the IC50 on Cdk-2/cyclin E stood at 19 ± 1.55 µM. Also, the GI50 in the data set with K562 worked out at 8.19 ± 0.06 µM. The same compound yielded a GI50 in the data set on MV4-11 of 4.45 ± 1.48 µM. The same compound returned a concentration for 50% growth inhibition (GI50) in the data set with HL-60 of 1.25 ± 0.11 µM. Also, the 50% growth inhibitory concentration (GI50) with Ramos turned out to be 14.2 ± 2.61 µM.

`NC1CCC(Nc2nc(Nc3ccc(CN4CCOCC4)cc3)c3ncn(C4CCCC4)c3n2)CC1` (stereo not shown) [II]: on FLT3-ITD [3], the half-inhibitory concentration (IC50) was 0.002 µM.

The compound `CCCCCn1cnc2c(Nc3ccccc3)nc(Nc3ccc(N4CCN(C)CC4)cc3)nc21` [Compound 5d, N^2-(4-(4-Methylpiperazin-1-yl)phenyl)-9-pentyl-N^6-phenyl-9H-purine-2,6-diamine] came in with a melting point of 138.5 to 141.3 °C. In the data set with CEM, this compound displayed a concentration for 50% growth inhibition (GI50) of 19.1 ± 3.39 µM. The IC50 at FLT3-ITD [1] was 0.46 µM. Also, at BTK, the half-inhibitory concentration (IC50) was < 0.58 µM and 0.42 µM. In addition, the IC50 at Bcr-Abl1 came to 1.23 ± 0.02 µM. For the same compound, on Cdk-2/cyclin E, the half-maximal inhibitory concentration (IC50) was determined as 31.1 ± 2.91 µM. Besides, growth with K562 was halved (GI50) at 6.7 ± 2.48 µM. In addition, in the data set on MV4-11, the GI50 came out at 1.28 ± 0.38 µM. In addition, the GI50 in the data set with HL-60 was 3.98 ± 1.06 µM. In the data set on Ramos, this compound yielded a GI50 of 13.8 ± 3.13 µM.

`CC(C)CCn1cnc2c(Nc3ccccc3)nc(Nc3ccc(N4CCN(C)CC4)cc3)nc21` [Compound 5a, 9-Isopentyl-N^2-(4-(4-methylpiperazin-1-yl)phenyl)-N^6-phenyl-9H-purine-2,6-diamine]: the melting point was in the range of 153.1 to 155.2 °C. Moreover, halving of growth with CEM (GI50) required 16.4 ± 2.41 µM. Besides, the half-inhibitory concentration (IC50) on FLT3-ITD [1] was determined as 0.23 µM. Besides, the 50% inhibitory concentration (IC50) on BTK came to 2.22 ± 0.96 µM. Besides, the IC50 at Bcr-Abl1 is 1.78 ± 0.2 µM. At Cdk-2/cyclin E, the IC50 came to 22.1 ± 0.38 µM. This compound also displayed a GI50 in the data set with K562 of 8.93 ± 5.52 µM. For the same compound, growth in the data set on MV4-11 was halved (GI50) at 0.73 ± 0.25 µM. The same compound returned a concentration for 50% growth inhibition (GI50) with HL-60 of 1.52 ± 0.61 µM. Also, the 50% growth inhibitory concentration (GI50) in the data set with Ramos was 10.1 ± 2.98 µM.

For `CN1CCN(c2ccc(Nc3nc(Nc4cccc([N+](=O)[O-])c4)c4ncn(CC5CC5)c4n3)cc2)CC1` [Compound 4g, 9-(Cyclopropylmethyl)-N^2-(4-(4-methylpiperazin-1-yl)phenyl)-N^6-(3-nitrophenyl)-9H-purine-2,6-diamine], the melting point lay in the range of 165 to 166 °C. Besides, the GI50 in the data set on CEM was 11.5 ± 3.93 µM. The IC50 at FLT3-ITD [1] was 1.25 µM. Also, the IC50 on BTK is 1.36 ± 0.16 µM. For the same compound, the half-maximal inhibitory concentration (IC50) at Bcr-Abl1 was determined as 0.11 ± 0.01 µM. Besides, at Cdk-2/cyclin E, the IC50 came out at 5.62 ± 0.52 µM. The compound further gave a GI50 in the data set with K562 of 2.93 ± 0.59 µM. Also, in the data set with MV4-11, the GI50 amounted to 1.98 ± 0.46 µM. Moreover, the GI50 in the data set with HL-60 was 8.51 ± 1.79 µM. The compound further gave a concentration for 50% growth inhibition (GI50) in the data set on Ramos of 4.87 ± 0.01 µM.

For `CCCCCCCCn1cnc2c(Nc3cccc(F)c3)nc(Nc3ccc(N4CCN(C)CC4)cc3)nc21` [Compound 5k, N^6-(3-Fluorophenyl)-N^2-(4-(4-methylpiperazin-1-yl)phenyl)-9-octyl-9H-purine-2,6-diamine], the melting point is 181.2 to 183.6 °C. For the same compound, in the data set with CEM, the 50% growth inhibitory concentration (GI50) was found to be 21.3 ± 0.31 µM. Besides, the 50% inhibitory concentration (IC50) at FLT3-ITD [1] was over 20 µM. In addition, the IC50 on BTK turned out to be 0.97 ± 0.22 µM. At Bcr-Abl1, the IC50 was over 100 µM. At Cdk-2/cyclin E, the concentration for half-maximal inhibition (IC50) turned out to be 25.6 ± 3.27 µM. Further, it took 10 ± 6.31 µM to inhibit growth with K562 by half (GI50). For the same compound, in the data set on MV4-11, the concentration for 50% growth inhibition (GI50) came to 12.4 ± 3.93 µM. The GI50 in the data set on HL-60 is 2.16 ± 0.48 µM. In addition, the GI50 with Ramos was 15.7 ± 0.37 µM.
